Test system: HT-1080 cells
Test: HT-1080 cell viability assay (ferroptosis induced by RSL3, Cell Titer-Glo)
Type: cell-based
Settings: ferroptosis inducer RSL3, 20 hours, ferroptosis inhibitory activity, Table 2
Summary of the method: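 Cells seeded overnight, then co-treated with RSL3 and compound (3-fold, 10-point dilution, top 1.1 μM) for 20 hours. Viability by CellTiter-Glo luminescence, normalized to untreated controls; EC50 from sigmoidal non-linear regression.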

Work on `CC(C)C1CCN(c2ccc(NC3CCC(N)CC3)nc2)CC1` (centres unmarked) [Compound 406, N1-(5-(4-isopropylpiperidin-1-yl)pyridin-2-yl)cyclohexane-1,4-diamine] yielded an EC50 (Homo sapiens, HT-1080, 20 h) of 0.1 to 100 nM.
Work on `Cc1cc(N2CC(C)OC(C)C2)ccc1NCC1CCC(N)CC1` (centres unmarked) [Compound 407, N-(((1r,4r)-4-aminocyclohexyl)methyl)-4-(2,6-dimethylmorpholino)-2-methylaniline] yielded an EC50 of 0.1 to 100 nM.
Work on `CC(C)C1CCN(c2ncc(NC3C4CC5CC3CC(NC(N)=O)(C5)C4)cn2)CC1` (centres unmarked) [Compound 408, 1-(4-((2-(4-isopropylpiperidin-1-yl)pyrimidin-5-yl)amino)adamantan-1-yl)urea] yielded an EC50 (Homo sapiens, HT-1080, 20 h) of 0.1 to 100 nM.
`CC(C)C1CCN(c2ncc(NC[C@H]3CC[C@H](NC(N)=O)CC3)cn2)CC1` [Compound 409, 1-((1r,4r)-4-(((2-(4-isopropylpiperidin-1-yl)pyrimidin-5-yl)amino)methyl)cyclohexyl)urea] was tested, and the EC50 (Homo sapiens, HT-1080, 20 h) was 0.1 to 100 nM.
In the case of `CC1(C)CCN(c2ncc(NC3C4CC5CC3CC(C(N)=O)(C5)C4)cn2)CC1` (centres unmarked) [Compound 410, 4-((2-(4,4-dimethylpiperidin-1-yl)pyrimidin-5-yl)amino)adamantane-1-carboxamide], the EC50 (Homo sapiens, HT-1080, 20 h) is reported as 0.1 to 100 nM.
In the case of `CC(C)C1CCN(c2ccc(NC3CCC(N)CC3)nn2)CC1` (centres unmarked) [Compound 411, N1-(6-(4-isopropylpiperidin-1-yl)pyridazin-3-yl)cyclohexane-1,4-diamine], the EC50 (Homo sapiens, HT-1080, 20 h) is reported as 0.1 to 100 nM.
Compound `CC(C)C1CCN(c2ncc(NC3CC4(CC(NCCF)C4)C3)cn2)CC1` (centres unmarked) [Compound 412, N2-(2-fluoroethyl)-N6-(2-(4-isopropylpiperidin-1-yl)pyrimidin-5-yl)spiro[3.3]heptane-2,6-diamine] has an EC50 (Homo sapiens, HT-1080, 20 h) of 0.1 to 100 nM.
Compound `CC(C)C1CCN(c2ncc(NC3CC4(CC(NCC(F)F)C4)C3)cn2)CC1` (centres unmarked) [Compound 413, N2-(2,2-difluoroethyl)-N6-(2-(4-isopropylpiperidin-1-yl)pyrimidin-5-yl)spiro[3.3]heptane-2,6-diamine] has an EC50 (Homo sapiens, HT-1080, 20 h) of 0.1 to 100 nM.
Work on `CC(C)C1CCN(c2ncc(NC3CC4(CC(NCC(F)(F)F)C4)C3)cn2)CC1` (centres unmarked) [Compound 414, N2-(2-(4-isopropylpiperidin-1-yl)pyrimidin-5-yl)-N6-(2,2,2-trifluoroethyl)spiro[3.3]heptane-2,6-diamine] yielded an EC50 (Homo sapiens, HT-1080, 20 h) of 0.1 to 100 nM.
`OC1CCCCC1Nc1ccc(N2CCC(C(F)(F)F)CC2)cc1` (centres unmarked) [Compound 415, 2-((4-(4-(trifluoromethyl)piperidin-1-yl)phenyl)amino)cyclohexan-1-ol] was tested, and the EC50 (Homo sapiens, HT-1080, 20 h) was 0.1 to 100 nM.
Compound `NC1CCC(Nc2ccc(N3CCC(C(F)(F)F)CC3)c(OCCO)c2)CC1` (centres unmarked) [Compound 416, (5-((4-aminocyclohexyl)amino)-2-(4-(trifluoromethyl)piperidin-1-yl)phenoxy) ethan-1-ol] has an EC50 (Homo sapiens, HT-1080, 20 h) of 0.1 to 100 nM.
Work on `Cc1cc(N2CC(C)CC(C)C2)ccc1NC[C@H]1CC[C@H](N)CC1` (some centres unmarked) [Compound 418] yielded an EC50 (Homo sapiens, HT-1080, 20 h) of 0.1 to 100 nM.
Work on `Cc1cc(N2CCC(C(F)(F)F)C2)ccc1NC[C@H]1CC[C@H](N)CC1` (some centres unmarked) [Compound 419, N-(((1r,4r)-4-aminocyclohexyl)methyl)-2-methyl-4-(3-(trifluoromethyl)pyrrolidin-1-yl)aniline] yielded an EC50 (Homo sapiens, HT-1080, 20 h) of 0.1 to 100 nM.
For `CN[C@H]1CC[C@H](CNc2ccc(N3CC(C)OC(C)C3)cc2)CC1` (some centres unmarked) [Compound 420, 4-(2,6-dimethylmorpholino)-N-(((1r,4r)-4-(methylamino)cyclohexyl)methyl)aniline], the EC50 (Homo sapiens, HT-1080, 20 h) was 0.1 to 100 nM.
`CC1CN(c2ccc(NC3C4CC5CC3CC(N)(C5)C4)cc2)CC(C)O1` (centres unmarked) [Compound 421A, N^4-(4-(2,6-dimethylmorpholino)phenyl)adamantane-1,4-diamine] was tested, and the EC50 (Homo sapiens, HT-1080, 20 h) was 0.1 to 100 nM.
Compound `CC(C)C1CCN(c2ncc(NC3CC4(CC(O)C4)C3)cn2)CC1` (centres unmarked) [Compound 422, 6-((2-(4-isopropylpiperidin-1-yl)pyrimidin-5-yl)amino)spiro[3.3]heptan-2-ol] has an EC50 (Homo sapiens, HT-1080, 20 h) of 0.1 to 100 nM.
Work on `CC(C)C1CCN(c2ncc(NC[C@H]3CC[C@H](C(N)=O)CC3)cn2)CC1` [Compound 423, (1r,4r)-4-(((2-(4-isopropylpiperidin-1-yl)pyrimidin-5-yl)amino)methyl)cyclohexane-1-carboxamide] yielded an EC50 (Homo sapiens, HT-1080, 20 h) of 0.1 to 100 nM.

Reference: patent US20240360114A1 (SIRONAX LTD., priority 2021, published 2024)
